From patent publication US20240199587A1, “HETEROCYCLIC COMPOUNDS” (Hoffmann-La Roche Inc., priority 2021, published 2024) come the findings set out here.

A word on the IC50: it is the concentration at which inhibition is half-maximal. The low end stands for greater potency in that assay, the high end for weaker potency in that assay.

This test has as its target T1, MAGL (Homo sapiens, UniProt Q99685).
T1 sequence (Q99685 1-303): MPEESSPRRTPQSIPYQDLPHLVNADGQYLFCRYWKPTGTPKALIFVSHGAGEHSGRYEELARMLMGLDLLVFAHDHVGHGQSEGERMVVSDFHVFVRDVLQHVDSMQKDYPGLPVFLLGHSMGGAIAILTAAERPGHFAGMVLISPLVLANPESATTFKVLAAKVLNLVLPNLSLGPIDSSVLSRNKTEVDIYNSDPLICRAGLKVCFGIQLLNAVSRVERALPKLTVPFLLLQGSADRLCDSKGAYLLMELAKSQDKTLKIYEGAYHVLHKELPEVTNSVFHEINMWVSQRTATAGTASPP
The experiment in a line: 2-AG assay (MAGL inhibitory activity, hydrolysis of 2-arachidonoylglycerol to arachidonic acid followed by mass spectrometry). The test is classed as biochemical. Conditions: 8 μM 2-arachidonoylglycerol, 15 min pre-incubation, 30 min incubation at RT, RapidFire MS readout. The text has this:
Compounds of formula (I) were profiled for MAGL inhibitory activity by determining the enzymatic activity by following the hydrolysis of the natural substrate 2-arachidonoylglycerol (2-AG) resulting in arachidonic acid, which can be followed by mass spectrometry. This assay is hereinafter abbreviated “2-AG assay”.
Compounds of formula (I) were profiled for MAGL inhibitory activity by determining the enzymatic activity by following the hydrolysis of the natural substrate 2-arachidonoylglycerol (2-AG) resulting in arachidonic acid, which can be followed by mass spectrometry. This assay is hereinafter abbreviated “2-AG assay”. The 2-AG assay was carried out in 384 well polypropylene assay plates. […] Compound dilutions were added to MAGL protein in assay buffer (50 mM TRIS, 1 mM EDTA, 0.01% (v/v) Tween-20, 2.5% (v/v) DMSO). After shaking, the plate was incubated for 15 min at RT. To start the reaction, 2-arachidonoylglycerol in assay buffer was added. The final concentrations in the assay was […] for MAGL protein and 8 μM 2-arachidonoylglyerol. After shaking and 30 min incubation at RT, the reaction was quenched by the addition of two assay volumes of acetonitrile containing 4 μM of d8-arachidonic acid. The amount of arachidonic acid formed was traced by an online SPE system (Agilent Rapidfire) coupled to a triple quadrupole mass spectrometer. A C18 SPE cartridge (Agilent G9205A) was used in an acetonitrile/water liquid setup. The mass spectrometer was operated in negative electrospray mode following the mass transitions 303.1→259.1 for arachidonic acid and 311.1→267.0 for d8-arachidonic acid. The activity of the compounds was calculated based on the ratio of intensities [arachidonic acid/d8-arachidonic acid].
`Cc1cc(C(=O)N2CC3(CC(n4cnc(C5CC5)n4)C3)C2)nnc1OCC1(C(F)(F)F)CC1` [Example 32, [6-(3-cyclopropyl-1,2,4-triazol-1-yl)-2-azaspiro[3.3]heptan-2-yl]-[5-methyl-6-[[1-(trifluoromethyl)cyclo-propyl]methoxy]pyridazin-3-yl] methanone] displayed an IC50 of 2820 nM.
In the case of `O=C(N1CC(c2ccc(OC(F)(F)F)cc2)C1)N1CC2(CC(n3cnc(C4CC4)n3)C2)C1` [Example 33, [6-(3-cyclopropyl-1,2,4-triazol-1-yl)-2-azaspiro[3.3]heptan-2-yl]−[3-[4-(trifluoromethoxy)phenyl]azetidin-1-yl]methanone], it took 0.4 nM to reach half-maximal inhibition (IC50).
As for `O=C(N1CC(c2ccc(C3(N4CCOCC4)CC3)cc2)C1)N1CC2(CC(n3cnc(C4CC4)n3)C2)C1` [Example 34, [6-(3-cyclopropyl-1,2,4-triazol-1-yl)-2-azaspiro[3.3]heptan-2-yl]-[3-[4-(1-morpholinocyclopro-pyl)phenyl]azetidin-1-yl]methanone], the half-maximal inhibitory concentration (IC50) turned out to be 5.7 nM.
As to `CC(F)(F)c1ccc(C2CN(C(=O)N3CC4(CC(n5cnc(C6CC6)n5)C4)C3)C2)cc1` [Example 35], the 50% inhibitory concentration (IC50) was determined as 20 nM.
As for `O=C(N1CC(c2ccc(OC(F)(F)F)c(F)c2)C1)N1CC2(CC(n3cnc(C4CC4)n3)C2)C1` [Example 36, [6-(3-cyclopropyl-1,2,4-triazol-1-yl)-2-azaspiro[3.3]heptan-2-yl]-[3-[3-fluoro-4-(trifluoromethoxy)phenyl]azetidin-1-yl]methanone], the IC50 turned out to be 0.4 nM.
In turn, `O=C(N1CC(c2ccc(CC(F)(F)F)cc2)C1)N1CC2(CC(n3cnc(C4CC4)n3)C2)C1` [Example 37, [6-(3-cyclopropyl-1,2,4-triazol-1-yl)-2-azaspiro[3.3]heptan-2-yl]-[3-[4-(2,2,2-trifluoroethyl)phenyl]azetidin-1-yl]methanone] displayed an IC50 of 24.5 nM.
In turn, `O=C(N1CC(c2ccc(C3CC3)cc2F)C1)N1CC2(CC(n3cnc(C4CC4)n3)C2)C1` [Example 38, [3-(4-cyclopropyl-2-fluoro-phenyl)azetidin-1-yl]-[6-(3-cyclopropyl-1,2,4-triazol-1-yl)-2-azaspiro[3.3]heptan-2-yl]methanone] yielded an IC50 of 0.6 nM.
Take `N#Cc1cc(C2CN(C(=O)N3CC4(CC(n5cnc(C6CC6)n5)C4)C3)C2)ccc1OC(F)(F)F` [Example 39, 5-[1-[6-(3-cyclopropyl-1,2,4-triazol-1-yl)-2-azaspiro[3.3]heptane-2-carbonyl]azetidin-3-yl]-2-(trifluoromethoxy) benzonitrile]: it took 2.4 nM to reach half-maximal inhibition (IC50).
With `COc1cc(C(F)(F)F)ccc1CC1CC2(C1)CN(C(=O)N1CC3(CC(n4cnc(C5CC5)n4)C3)C1)C2` [Example 40, [6-(3-cyclopropyl-1,2,4-triazol-1-yl)-2-azaspiro[3.3]heptan-2-yl]−[6-[[2-methoxy-4-(trifluoromethyl)phenyl]methyl]-2-azaspiro[3.3]heptan-2-yl]methanone], the half-inhibitory concentration (IC50) was 0.03 nM.
In turn, `O=C(N1CC2(CC(Cc3ccc(F)cc3F)C2)C1)N1CC2(CC(n3cnc(C4CC4)n3)C2)C1` [Example 41, [6-(3-cyclopropyl-1,2,4-triazol-1-yl)-2-azaspiro[3.3]heptan-2-yl]-[6-[(2,4-difluorophenyl)methyl]-2-azaspiro[3.3]heptan-2-yl]methanone] gave an IC50 of 0.04 nM.
For `O=C(N1CC2(CC(Oc3ccc(OC(F)(F)F)cc3F)C2)C1)N1CC2(CC(n3cnc(C4CC4)n3)C2)C1` [Example 42, [6-(3-cyclopropyl-1,2,4-triazol-1-yl)-2-azaspiro[3.3]heptan-2-yl]−[6-[2-fluoro-4-(trifluoromethoxy)phenoxy]-2-azaspiro[3.3]heptan-2-yl]methanone], the half-inhibitory concentration (IC50) was found to be 0.1 nM.
As for `O=C(N1CC2(CC(Oc3ccc(C(F)(F)F)cc3)C2)C1)N1CC2(CC(n3cnc(C4CC4)n3)C2)C1` [Example 43, [6-(3-cyclopropyl-1,2,4-triazol-1-yl)-2-azaspiro[3.3]heptan-2-yl]-[6-[4-(trifluoromethyl)phenoxy]-2-azaspiro[3.3]heptan-2-yl]methanone], the figure is 0.1 nM.
With `CC(C)(C)c1ccc(C2CN(C(=O)N3CC4(CC(n5cnc(C6CC6)n5)C4)C3)C2)cc1` [Example 44, [3-(4-tert-butylphenyl)azetidin-1-yl]-[6-(3-cyclopropyl-1,2,4-triazol-1-yl)-2-azaspiro[3.3]heptan-2-yl]methanone], the 50% inhibitory concentration (IC50) was determined as 0.2 nM.
`O=C(N1CC2(CC(Oc3ccc(F)cc3Cl)C2)C1)N1CC2(CC(n3cnc(C4CC4)n3)C2)C1` [Example 45, [6-(2-chloro-4-fluoro-phenoxy)-2-azaspiro[3.3]heptan-2-yl]-[6-(3-cyclopropyl-1,2,4-triazol-1-yl)-2-azaspiro[3.3]heptan-2-yl]methanone] came in with a 50% inhibitory concentration (IC50) of 0.2 nM.
For the molecule `O=C(N1CC2(CC(Oc3cc(F)cc(C(F)(F)F)c3)C2)C1)N1CC2(CC(n3cnc(C4CC4)n3)C2)C1` [Example 46, (6-(3-cyclopropyl-1H-1,2,4-triazol-1-yl)-2-azaspiro[3.3]heptan-2-yl)(6-(3-fluoro-5-(trifluoromethyl)phenoxy)-2-azaspiro[3.3]heptan-2-yl)methanone], the IC50 stood at 0.2 nM.
Regarding `N#Cc1cc(OC(F)(F)F)ccc1OC1CC2(C1)CN(C(=O)N1CC3(CC(n4cnc(C5CC5)n4)C3)C1)C2` [Example 47], inhibition was half-maximal at 0.2 nM (IC50).
As for `O=C(N1CC(c2ccc(C3(C(F)(F)F)CC3)cc2)C1)N1CC2(CC(n3cnc(C4CC4)c3)C2)C1` [Example 48, [6-(4-cyclopropylimidazol-1-yl)-2-azaspiro[3.3]heptan-2-yl]-[3-[4-[1-(trifluoromethyl)cyclo-propyl]phenyl]azetidin-1-yl]methanone], the figure is 0.2 nM; as for `O=C(N1CC(OCc2ccc(S(F)(F)(F)(F)F)cc2F)C1)N1CC2(CC(n3cnc(C4CC4)n3)C2)C1` [Example 49], 0.3 nM.
`O=C(N1CC2(CC(Cc3ccc(F)c(F)c3)C2)C1)N1CC2(CC(n3cnc(C4CC4)n3)C2)C1` [Example 50, (6-(3-cyclopropyl-1H-1,2,4-triazol-1-yl)-2-azaspiro[3.3]heptan-2-yl)(6-(3,4-difluorobenzyl)-2-azaspiro[3.3]heptan-2-yl)methanone] gave a half-inhibitory concentration (IC50) of 0.3 nM.
As for `O=C(N1CC2(CC(Oc3cncc(C(F)(F)F)n3)C2)C1)N1CC2(CC(n3cnc(C4CC4)n3)C2)C1` [Example 51, (6-(3-cyclopropyl-1H-1,2,4-triazol-1-yl)-2-azaspiro[3.3]heptan-2-yl)(6-((6-(trifluoromethyl)pyrazin-2-yl)oxy)-2-azaspiro[3.3]heptan-2-yl)methanone], the figure is 0.3 nM.
For `O=C(N1CC2(CC(Oc3ccc(C(F)(F)F)cn3)C2)C1)N1CC2(CC(n3cnc(C4CC4)n3)C2)C1` [Example 52, [6-(3-cyclopropyl-1,2,4-triazol-1-yl)-2-azaspiro[3.3]heptan-2-yl]-[6-[[5-(trifluoromethyl)-2-pyridyl]oxy]-2-azaspiro[3.3]heptan-2-yl]methanone], it took 0.4 nM to reach half-maximal inhibition (IC50).
`O=C(N1CC(c2ccc(OC(F)(F)F)c(Cl)c2)C1)N1CC2(CC(n3cnc(C4CC4)n3)C2)C1` [Example 53, [3-[3-chloro-4-(trifluoromethoxy)phe-nyl]azetidin-1-yl]-[6-(3-cyclopropyl-1,2,4-triazol-1-yl)-2-azaspiro[3.3]heptan-2-yl]methanone]: the midpoint of inhibition, the IC50, lay at 0.7 nM.
As for `O=C(N1CC2(CC(Oc3ccc(OC(F)(F)F)cc3)C2)C1)N1CC2(CC(n3cnc(C4CC4)n3)C2)C1` [Example 54, [6-(3-cyclopropyl-1,2,4-triazol-1-yl)-2-azaspiro[3.3]heptan-2-yl]-[6-[4-(trifluoromethoxy)phe-noxy]-2-azaspiro[3.3]heptan-2-yl]methanone], the half-maximal inhibitory concentration (IC50) was 1.2 nM.
Consider `O=C(N1CC2(CC(Oc3ccnc(C(F)(F)F)n3)C2)C1)N1CC2(CC(n3cnc(C4CC4)n3)C2)C1` [Example 55, [6-(3-cyclopropyl-1,2,4-triazol-1-yl)-2-azaspiro[3.3]heptan-2-yl]−[6-[2-(trifluoromethyl)pyrimidin-4-yl]oxy-2-azaspiro[3.3]heptan-2-yl]methanone], for which the IC50 was 1.8 nM.
In turn, `O=C(N1CC2(CC(Oc3ccc(OC(F)F)nc3)C2)C1)N1CC2(CC(n3cnc(C4CC4)n3)C2)C1` [Example 56, (6-(3-cyclopropyl-1H-1,2,4-triazol-1-yl)-2-azaspiro[3.3]heptan-2-yl)(6-((6-(difluoromethoxy)pyridin-3-yl)oxy)-2-azaspiro[3.3]heptan-2-yl)methanone] returned an IC50 of 2.5 nM.
